Source: patent US20250144067A1, “PERSONALIZED STARVATION THERAPY FOR CANCER” (Faeth Therapeutics, Inc., priority 2021, published 2025)
Where a name gives a salt, the structure may show the parent alone.

Experiments:
[1] = test system: NCI-H292 lung cancer cells; test: FDA drug screening, complete media vs cholesterol-free media without statin (TABLE 1); format: cell-based, human
[2] = test system: NCI-H292 lung cancer cells; test: FDA drug screening, complete media vs cholesterol-free media with simvastatin (TABLE 2); format: cell-based, human; settings: for Cholesterol-free media + simvastatin (0.04 μM) / Complete Media: NCI-H292 cells
[3] = NCI-H292 cells, cholesterol-free media without statin, FDA drug library screen
[4] = NCI-H292 cells, complete media, FDA drug library screen
[5] = complete vs cholesterol-free media, >0 enhanced anti-cancer activity, about 0 neutral, <0 antagonist
[6] = FDA drug library screen, cholesterol-free media with simvastatin 0.04 μM
[7] = FDA drug library screen, complete media
[8] = complete media vs cholesterol-free media + simvastatin (0.04 μM), >0 enhanced anti-cancer activity, about 0 neutral, <0 antagonist
[9] = Complete minus Cholesterol-free, >0 enhanced anti-cancer activity, about 0 neutral, <0 antagonist
[10] = NCI-H292 cells, cholesterol-free media without statin
[11] = cholesterol-free media with simvastatin 0.04 μM, cell growth value in FDA drug screen
[12] = complete media, cell growth value in FDA drug screen
[13] = complete media minus cholesterol-free media + simvastatin, >0 enhanced anti-cancer activity, about 0 neutral, <0 antagonist
[14] = FDA library drug in cholesterol-free media with simvastatin 0.04 μM
[15] = FDA library drug in complete media

CSc1ccc2c(c1)N(CCC1CCCCN1C)c1ccccc1S2 (stereo not shown) [Thioridazine (hydrochloride)]
Cholesterol-free [1, 3]: 1.045
Complete [1, 4]: 1.124
Difference [1, 5]: 0.08
Cholesterol-free media + simvastatin (0.04 μM) [2, 6]: 1.073
Complete Media [2, 7]: 0.9459
Difference [2, 8]: −0.13

CCCOc1ccc(S(=O)(=O)NCCC2CCCN2C)cc1-c1nc2c(CCC)nn(C)c2c(=O)[nH]1 (stereo not shown) [Udenafil]
Difference [1, 9]: −0.28
Cholesterol-free [1, 10]: 1.473
Complete ([1]; NCI-H292 cells, complete media): 1.195
Cholesterol-free media + simvastatin (0.04 μM) [2, 11]: 1.921
Complete Media [2, 12]: 2.002
Difference [2, 13]: 0.08

OC[C@@H](O)[C@@H](O)[C@H](O)[C@H](O)CO [D-Mannitol]
Cholesterol-free [1, 3]: 0.8621
Complete [1, 4]: 1.662
Difference [1, 5]: 0.80
Cholesterol-free media + simvastatin (0.04 μM) [2, 6]: 1.033
Complete Media [2, 7]: 1.748
Difference [2, 13]: 0.71

CCOC(=O)[C@H](CCc1ccccc1)N[C@@H](C)C(=O)N1C(=O)N(C)C[C@H]1C(=O)O [Imidapril (hydrochloride)]
Cholesterol-free [1, 3]: 0.9489
Complete [1, 4]: 1.458
Difference [1, 5]: 0.51
Cholesterol-free media + simvastatin (0.04 μM) [2, 14]: 1.282
Complete Media [2, 15]: 0.8523
Difference [2, 8]: −0.43

CC(C)(CO)[C@@H](O)C(=O)NCCC(=O)[O-].CC(C)(CO)[C@@H](O)C(=O)NCCC(=O)[O-].[Ca+2] [D-Pantothenic acid (hemicalcium salt)]
Difference [1, 9]: −0.04
Cholesterol-free [1, 3]: 0.8788
Complete [1, 4]: 0.8434
Cholesterol-free media + simvastatin (0.04 μM) [2, 14]: 1.159
Complete Media [2, 15]: 0.786
Difference [2, 8]: −0.37

CN(CCOc1ccc(CC2SC(=O)NC2=O)cc1)c1ccccn1.O=C(O)/C=C\C(=O)O (stereo not shown) [Rosiglitazone (maleate)]
Cholesterol-free [1, 3]: 1.107
Complete [1, 4]: 1.422
Difference [1, 5]: 0.32
Cholesterol-free media + simvastatin (0.04 μM) [2, 11]: 0.848
Complete Media [2, 12]: 0.8943
Difference [2, 13]: 0.05

CCOc1cc([C@@H](CS(C)(=O)=O)N2C(=O)c3cccc(NC(C)=O)c3C2=O)ccc1OC [Apremilast]
Cholesterol-free [1, 3]: 1.127
Complete [1, 4]: 1.856
Difference [1, 5]: 0.73
Cholesterol-free media + simvastatin (0.04 μM) [2, 6]: 1.396
Complete Media [2, 7]: 1.812
Difference [2, 13]: 0.42

Alimemazine hemitartrate
Difference [1, 9]: 0.05
Cholesterol-free [1, 3]: 1.186
Complete [1, 4]: 1.239
Cholesterol-free media + simvastatin (0.04 μM) [2, 6]: 0.9971
Complete Media [2, 7]: 1.335
Difference [2, 13]: 0.34

Cn1c(=O)c2[nH]cnc2n(C)c1=O [Choline theophyllinate]
Difference [1, 9]: −0.20
Cholesterol-free [1, 10]: 1.108
Complete ([1]; NCI-H292 cells, complete media): 0.9038
Cholesterol-free media + simvastatin (0.04 μM) [2, 6]: 1.275
Difference [2, 8]: −0.10

CC(C)CCC[C@@H](C)[C@H]1CC[C@H]2[C@@H]3CC=C4C[C@@H](O)CC[C@]4(C)[C@H]3CC[C@]12C [Cholesterol]
Difference [1, 9]: −0.27
Cholesterol-free [1, 10]: 1.34
Complete ([1]; NCI-H292 cells, complete media): 1.074
Cholesterol-free media + simvastatin (0.04 μM) [2, 14]: 1.697
Complete Media [2, 15]: 1.069
Difference [2, 8]: −0.63

Cc1cnc(Nc2ccc(OCCN3CCCC3)cc2)nc1Nc1cccc(S(=O)(=O)NC(C)(C)C)c1 [Fedratinib]
Difference [1, 9]: −0.27
Cholesterol-free [1, 10]: 0.5626
Complete ([1]; NCI-H292 cells, complete media): 0.2926
Cholesterol-free media + simvastatin (0.04 μM) [2, 14]: 0.6759
Complete Media [2, 15]: 0.284
Difference [2, 8]: −0.39

CNCc1ccc(-c2[nH]c3cc(F)cc4c3c2CCNC4=O)cc1 [Rucaparib (Camsylate)]
Difference [1, 9]: −0.26
Cholesterol-free [1, 10]: 1.063
Complete ([1]; NCI-H292 cells, complete media): 0.7996
Cholesterol-free media + simvastatin (0.04 μM) [2, 14]: 1.277
Complete Media [2, 15]: 0.994
Difference [2, 8]: −0.28

Cetrorelix (Acetate)
Difference ([1]; Complete minus Cholesterol-free, […]): −1.14
Cholesterol-free ([1]; NCI-H292 cells in cholesterol-free media without statin): 1.889
Complete ([1]; NCI-H292 cells in complete media): 0.7459
Cholesterol-free media + simvastatin (0.04 μM) ([2]; cholesterol-free media with simvastatin 0.04 μM, […]): 1.03
Difference ([2]; complete media minus cholesterol-free media + simvastatin, […]): 0.08
